According to ChEMBL document CHEMBL5209579, “Flow cytometry transport assay for SLC2A4 using HEK293 JumpIN TRex SLC2A4 WT-OE cells” (2022):

Target: T1, Solute carrier family 2, facilitated glucose transporter member 4 (Homo sapiens, UniProt P14672)
T1 sequence (P14672 whole entry): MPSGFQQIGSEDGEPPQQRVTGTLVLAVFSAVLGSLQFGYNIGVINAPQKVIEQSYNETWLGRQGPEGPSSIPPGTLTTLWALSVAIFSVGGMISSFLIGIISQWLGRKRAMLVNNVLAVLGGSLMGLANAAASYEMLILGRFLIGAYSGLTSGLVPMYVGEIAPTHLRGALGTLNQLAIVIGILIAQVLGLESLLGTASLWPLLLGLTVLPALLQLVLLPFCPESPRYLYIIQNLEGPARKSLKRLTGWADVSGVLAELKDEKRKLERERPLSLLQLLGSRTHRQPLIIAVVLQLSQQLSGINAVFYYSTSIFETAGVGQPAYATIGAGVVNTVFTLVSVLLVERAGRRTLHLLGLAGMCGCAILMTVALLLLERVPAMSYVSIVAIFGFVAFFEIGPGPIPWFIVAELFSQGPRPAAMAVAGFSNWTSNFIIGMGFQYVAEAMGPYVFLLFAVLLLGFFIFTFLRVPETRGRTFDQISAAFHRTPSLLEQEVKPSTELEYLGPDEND
Assay: Inhibition of the Glucose Transporter (GLUT4, SLC2A4) as assessed by a FRET based flow cytometry assay using a genetically-encoded biosensor for measuring free glucose (FLII12Pglu-700uDelta6) in HEK293 JumpIN TRex SLC2A4 WT-OE cells (PubChem AID: 1794828)
Format: functional, cell-based

Compound: O=C(Oc1cccc(F)c1OC(=O)c1cccc(O)c1)c1cccc(O)c1
- IC50: 2.5 µM

Compound: Cc1c(NC(=O)c2cc(C(N)=O)nc3cc(F)ccc23)c(C(F)(F)F)nn1Cc1ccc(C#N)cc1 [BAY-876]
- IC50: 5.5 µM

Compound: OC[C@H]1OC(O)[C@H](O)[C@@H](O)[C@@H]1O (stereo partly drawn) [DEXTROSE]
- EC50: 860 µM
